Assay results from patent US20260159474A1, “Aminoindane Compounds and Compositions and Methods of Their Therapeutic Use” (Solvonis Therapeutics Ireland Holdings Limited, priority 2021, published 2026).
Converted amounts (≈) assume the structure as drawn.

What was measured:
[1] = Solubility in PBS (pH 7.4), HPLC-UV; type: physicochemical; settings: for solubility at 120 min: PBS pH 7.4, room temperature, 2% DMSO; for Characterization (solubility class): PBS pH 7.4
Protocol: Stock solutions of therapeutic compounds (20 mM) were prepared in DMSO, on the same day of the experiment when feasible. These solutions were compared with an external standard solution of known concentration via HPLC-UV. To prepare the standard, 4 μL from a 20 mM compound stock solution was added to DMSO in a vial/well, and mixed with shaking at room temperature for 10 minutes. The standard buffer used for the assessment was PBS buffer (pH 7.4), but alternative buffers may also be used, such as biologically relevant Fluids, including Simulated Gastric fluid (SGF) at pH 1.2, Fasted State Simulated Intestinal Fluid (FaSSIF) at pH 6.5, and Fed State Simulated Intestinal Fluid (FeSSIF) at pH 5.0.
An isotonic phosphate buffer (iPBS) was prepared by dissolving a phosphate buffered saline tab (Sigma-Aldrich P4417-50Tab) in 200 mL of deionized water, the final composition of the solution being 10 mM PBS, 2.7 mM kCl, and 137 mM NaCl, yielding a final pH of 7.4 at 25° C. Samples were prepared by dispensing 8 μL from a 20 mM compound stock solution in DMSO in a vial/well in duplicate, adding 392 μL of buffer in each vial/well, and mixed by shaking at room temperature for 120 minutes. The final compound concentration was approximately 400 μM, while the final concentration of DMSO was about 2%. The solutions were then filtered prior to analysis.
Concentrations were determined by comparing UV absorbance of the test solution and of the known standard solution following HPLC separation using a generic fast gradient method employing a DAD detector and UV detection at 230 and 254 nm. Concerning the HPLC Mobile phase, Phase A was a 50 mM ammonium acetate aqueous solution (pH adjusted to 7.4 with ammonia), and Phase B was acetonitrile. For data analysis, chromatographic peaks were automatically integrated, and the parameters were optimized to enable consistent integration of all chromatograms in the entire analytical run. The solubility of each compound was expressed as the ratio of compound amount in the sample test solution to the amount of compound in the standard solution, calculated from the equation “solubility of sample=peak area of sample/peak area of standard×concentration of standard.”

[2] = molecular target: T1, human 5-HT2A receptor (Homo sapiens, UniProt P28223); assay: Intracellular calcium response (FLIPR) in CHO cells expressing human 5-HT2A receptor; type: cell-based; settings: n=2; for 5-HT2A agonist mode pEC50: intracellular calcium; for 5-HT2A antagonist mode pIC50: inhibition of serotonin EC80 response
T1 construct: expressed in transfected cells; host or cells: CHO
Protocol: Methods: Selectivity for the 5-HT2A receptor was assessed by measuring [ICa2+]i in a CHO recombinant cell line stably expressing the human 5-HT2A receptor, using a Fluorometric Imaging Plate Reader (FLIPR TETRA, Molecular Devices).
The day before the experiment, CHO cells were seeded into black-wells clear-bottom 384-well plates at a density of 10,000 cells per well, in F-12K Medium (ThermoFisher #21127) supplemented with 10% dialyzed fetal bovine serum, and grown overnight at 37° C., 5% C02.
On the day of the experiment, the medium was replaced with assay buffer (20 miM HEPES, 145 mM NaCl, 5 mM KCl, 5.5 mM glucose, 1 mM MgCl2, 2 mM CaCl2 and 2.5 mM probenecid, pH 7.4) containing the cytoplasmic Ca2+ indicator Fluo-4 AM at 2 μM and 0.02% Pluronic F-127. After an incubation of 45-60 minutes at 37° C., 0% C02, cells were washed by Microplate Washer (BIOTEK) 384 with assay buffer, and the plate was transferred to the FLIPR TETRA. Then, intracellular fluorescence was measured in real time by FLIPR TETRA (excitation wavelength at 470-495 nm, emission wavelength at 515-575 nm), using a dual addition protocol.
In the first addition, test compounds (11 points of 1:4 serial dilution, 0.5% DMSO final) were added to the cell plate to evaluate their effect on intracellular calcium levels. In the event of a response, the signal was elaborated for the determination of pEC50/EC50 values.

[3] = molecular target: T2, human P-glycoprotein transporter (MDCKII-MDR1 cells) (Homo sapiens, UniProt P08183); assay: Bidirectional permeability and P-gp substrate assay in MDCKII-MDR1 cells; type: in vitro ADME; settings: for Permeability classification: by Papp; for Papp A→B at 60 min: dog, MDCK, read-out: MDCKII Permeability app A > B; for P-gp Substrate?: efflux ratio >2 and reduced with GF120918 or in mock MDCKII cells
T2 construct: expressed in transfected cells; host or cells: MDCKII-MDR1 (Madin-Darby Canine Kidney clone II)
Protocol: Methods: A bidirectional permeability study was conducted to evaluate the apparent permeability (Papp) of therapeutic compounds. Additionally, the MDCKII-MDR1 cell line (Madin-Darby Canine Kidney clone II cell line heterologously expressing the human P-glycoprotein transporter) and mock cell line MDCKII were used to determine whether a compound acted as a P-gp substrate, in the absence and in the presence of a potent P-gp inhibitor. Test control items (digoxin, metoprolol, and atenolol) and control P-gp inhibitor (GF120918) stock solution were prepared in DMSO. Bidirectional assays (Apical to Basolateral [AB] and Basolateral to Apical [BA]) were run, in both the absence and presence of P-gp inhibitor GF120918 in MDCKII-MDR1 and mock cell line MDCKII, using as transport buffer HBSSH at a pH of 7.4 (n=3).
Compounds were tested at a single concentration (i.e. at […]) at one time point (i.e. 60 min). Alternative concentrations or time points may also be investigated. As reference compounds, digoxin (P-gp substrate), atenolol (low permeability) and metoprolol (high permeability) were included at a single concentration (e.g., 10 or […]) and at single time point (e.g., 60 min). Digoxin transport was evaluated in two directions (apical-to-basolateral [AB] and basolateral-to-apical [BA]) in the absence and presence of GF120918 or in mock cells, MDCKII (n=3). Atenolol and metoprolol were only tested in the AB direction in absence of P-gp inhibitor GF120918 or in mock cells, MDCKII (n=3). The integrity of the cell monolayer was evaluated after the permeability experiment using the paracellular permeability marker Lucifer yellow (LY) in the apical to basolateral direction in each well.
MDCKII or MDCKII-MDR1 cells were cultivated in DMEM (high glucose, GlutaMAXTM supplemented with pyruvate, 10% FBS HI and Pen/Strep). Cells were seeded onto microporous PET (Polyethylene Terephthalate) membranes in HTS 96-Multiwell Insert plates at a density of ˜175,000-245,000 cells/cm^2 (25000-35000 cells/well; 50 μL/well) in DMEM medium and incubated for 3-4 days at 37° C.-5% CO2. Medium was changed the day before the experiment.
Stock solutions of test items were prepared in DMSO at a concentration of 5 or 10 mM and stored at −20° C. until use. The potent P-gp inhibitor, GF120918 (stock solution 10 mM) and the reference controls digoxin, atenolol, metoprolol (stock solutions 3 or 10 mM) were prepared in DMSO and stored at −20° C. until use.
Donor working solutions of test items and reference controls were prepared at a concentration of 10 or 25 µM, diluting the stock solutions in HBSSH. Receiver working solutions contained transport buffer only. All working solutions were prepared such that the final concentration of DMSO was 1% (v/v). A donor working solution containing LY was also prepared in transport buffer at 100 µM.
MDCKII and MDCKII-MDR1 cells were preincubated (37° C., 15 to 30 minutes) in receiver working solutions containing transport buffer on apical (A) and basolateral (B) sides. Following pre-incubation, test items and control items (digoxin) transport were measured in two directions (apical to basolateral [AB]) and basolateral to apical [BA]), and these directions were performed in triplicate sets of wells, in both the absence and presence of […] GF120918 or mock MDCKII cells. For [AB] directional transport, 75 μL of donor working solution was added to the A (apical) compartment and 235 μL of receiver working solution was added to the B (basolateral) compartment. For [BA] directional transport, 235 μL donor working solution with test items or reference controls was added to the B compartment and 75 μL receiver working solution was added to the A compartment. Transport of permeability reference controls, atenolol and metoprolol, were measured in one direction (apical to basolateral [AB]) (n=3).
The cells were incubated (at 37° C., with shaking) for 60 minutes. […]

[4] = PBS buffer, aqueous buffer, kinetic from dmso stock
[5] = apical to basolateral, pH 7.4, 60 min

T2 sequence (P08183 whole entry): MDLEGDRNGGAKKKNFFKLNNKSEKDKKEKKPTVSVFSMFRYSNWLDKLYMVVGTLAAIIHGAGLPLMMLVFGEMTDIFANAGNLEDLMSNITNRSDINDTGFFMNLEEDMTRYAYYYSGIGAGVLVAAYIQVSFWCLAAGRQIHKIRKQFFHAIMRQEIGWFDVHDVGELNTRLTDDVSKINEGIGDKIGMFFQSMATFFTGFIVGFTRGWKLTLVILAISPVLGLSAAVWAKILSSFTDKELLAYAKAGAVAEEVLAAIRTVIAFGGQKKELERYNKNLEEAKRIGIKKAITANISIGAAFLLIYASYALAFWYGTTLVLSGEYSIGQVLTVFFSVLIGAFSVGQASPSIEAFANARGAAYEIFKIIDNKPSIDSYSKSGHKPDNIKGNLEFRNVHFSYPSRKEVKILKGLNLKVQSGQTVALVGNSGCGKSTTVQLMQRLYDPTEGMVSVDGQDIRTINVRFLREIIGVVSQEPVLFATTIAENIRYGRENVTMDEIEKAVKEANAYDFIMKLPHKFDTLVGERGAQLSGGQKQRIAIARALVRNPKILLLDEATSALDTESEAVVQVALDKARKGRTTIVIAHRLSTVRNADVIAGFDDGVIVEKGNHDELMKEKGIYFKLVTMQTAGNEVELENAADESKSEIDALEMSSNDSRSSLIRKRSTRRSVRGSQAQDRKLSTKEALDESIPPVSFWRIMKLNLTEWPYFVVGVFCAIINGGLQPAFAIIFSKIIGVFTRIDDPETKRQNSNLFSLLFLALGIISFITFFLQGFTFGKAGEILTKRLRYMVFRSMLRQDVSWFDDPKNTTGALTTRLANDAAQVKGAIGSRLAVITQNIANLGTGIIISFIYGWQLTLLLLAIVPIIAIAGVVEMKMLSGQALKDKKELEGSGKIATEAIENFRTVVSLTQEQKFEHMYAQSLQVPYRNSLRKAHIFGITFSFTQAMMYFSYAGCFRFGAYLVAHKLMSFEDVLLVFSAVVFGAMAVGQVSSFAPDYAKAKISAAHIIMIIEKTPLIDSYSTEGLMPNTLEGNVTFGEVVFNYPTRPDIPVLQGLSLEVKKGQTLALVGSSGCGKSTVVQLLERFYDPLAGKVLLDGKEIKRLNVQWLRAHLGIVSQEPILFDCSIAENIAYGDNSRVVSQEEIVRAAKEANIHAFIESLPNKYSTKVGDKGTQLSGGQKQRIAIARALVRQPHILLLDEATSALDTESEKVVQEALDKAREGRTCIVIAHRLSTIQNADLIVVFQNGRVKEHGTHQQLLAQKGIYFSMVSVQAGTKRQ
T1 sequence (P28223 whole entry): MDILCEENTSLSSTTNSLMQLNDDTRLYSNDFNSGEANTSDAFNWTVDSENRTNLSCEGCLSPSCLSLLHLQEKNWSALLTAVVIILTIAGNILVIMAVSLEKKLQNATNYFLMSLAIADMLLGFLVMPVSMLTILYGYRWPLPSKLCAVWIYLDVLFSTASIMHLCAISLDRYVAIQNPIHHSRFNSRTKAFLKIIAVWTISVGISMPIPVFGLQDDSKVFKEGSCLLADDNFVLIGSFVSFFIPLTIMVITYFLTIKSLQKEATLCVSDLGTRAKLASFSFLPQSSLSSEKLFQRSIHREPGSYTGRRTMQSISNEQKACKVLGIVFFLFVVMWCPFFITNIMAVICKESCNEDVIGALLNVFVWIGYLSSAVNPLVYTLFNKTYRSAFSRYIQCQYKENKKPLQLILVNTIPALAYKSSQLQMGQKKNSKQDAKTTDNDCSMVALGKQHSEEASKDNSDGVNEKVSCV

Compound	solubility at 120 min [1, 4] [µM]	Characterization (solubility class) [1]	5-HT2A agonist mode pEC50 [2]	5-HT2A antagonist mode pIC50 [2]	Permeability classification [3]	Papp A→B at 60 min [3, 5] [×10⁻⁶ cm/s]	P-gp Substrate? [3]	solubility at 120 min [1] [µM]	MDCKII Permeability app A > B [3, 5] [×10⁻⁶ cm/s]	MDCKII-MDR1 B-A ratio ([3]; efflux ratio, MDCKII-MDR1 cells)
COC(=O)c1ccc2c(c1)CC(N)C2 (stereo not shown) [CMP-405, 2-aminoindane-5-methylcarboxylate]	392 (≈ 75 µg/mL)	High solubility	comparable to MDMA	comparable to MDMA	highly permeable	16.2	No			
CNC(C)Cc1ccc2c(c1)OCO2 (stereo not shown) [MDMA]		High solubility	less than 4.3	less than 4.3	less permeable		No	386 (≈ 74.6 µg/mL)	14	1.5
COc1ccc2c(c1)CC(N)C2 (stereo not shown) [MEAI, 5-methoxy-2-aminoindane]	374 (≈ 61 µg/mL)	High solubility	comparable to MDMA	comparable to MDMA	highly permeable	17.4	No			
